These results are taken from publication PMC2637922, “Active-Site Inhibitors of mTOR Target Rapamycin-Resistant Outputs of mTORC1 and mTORC2” (PLoS Biology, 2009).

The structures appear in SMILES notation.

The target of one experiment is PKC-beta (Homo sapiens, UniProt P05771). To be noted: in vitro, purified protein.
Another experiment addresses T1, PDK1 (Homo sapiens, UniProt O15530).
T1 sequence (O15530 1-556): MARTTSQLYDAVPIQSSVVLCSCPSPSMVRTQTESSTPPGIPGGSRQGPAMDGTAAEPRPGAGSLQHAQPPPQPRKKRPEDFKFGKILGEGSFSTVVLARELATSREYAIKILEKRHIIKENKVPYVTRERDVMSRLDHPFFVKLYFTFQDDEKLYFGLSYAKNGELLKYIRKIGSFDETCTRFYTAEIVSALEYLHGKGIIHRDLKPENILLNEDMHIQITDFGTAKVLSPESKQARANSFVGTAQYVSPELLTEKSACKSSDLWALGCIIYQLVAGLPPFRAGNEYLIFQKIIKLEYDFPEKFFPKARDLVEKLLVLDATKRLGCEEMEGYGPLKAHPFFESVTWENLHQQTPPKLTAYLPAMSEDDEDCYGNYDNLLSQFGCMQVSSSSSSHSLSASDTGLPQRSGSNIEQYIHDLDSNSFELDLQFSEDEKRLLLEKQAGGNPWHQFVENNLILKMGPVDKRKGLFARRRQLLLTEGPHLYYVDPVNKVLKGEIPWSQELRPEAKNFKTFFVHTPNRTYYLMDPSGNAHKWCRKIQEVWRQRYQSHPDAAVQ
Kind of experiment: biochemical.

A further experiment deals with PKCβII (Homo sapiens, UniProt P05771). Kind of experiment: biochemical.
The next experiment has as its target PKCβI (Homo sapiens, UniProt P05771). Kind of experiment: biochemical.
In experiment [1] the test system is new protein synthesis in primary MEFs. Kind of experiment: 35S labeling of new protein synthesis. Format: cell-based, mouse. To be noted: overnight. The method, then: Primary MEFs grown to 70% confluence in six-well plates were incubated overnight in either 10% Serum (Steady State), kinase inhibitors in 10% serum, or 0.1% serum (starved). Cells were then washed once with DMEM lacking cysteine and methionine (DMEM-noS), and the medium was replaced with DMEM-noS including dialyzed serum and kinase inhibitors as indicated. After incubation for 1 h, 50 μCi of Expre^35S^35S (NEN) was added to each well and the cells were labeled for 4 h. Cells were washed once with ice-cold PBS, and lysed as described above for Western blotting. Following separation by SDS-PAGE, and transfer to nitrocellulose, ^35S-labeled proteins were visualized by autoradiography with film. For quantitation, the membrane was exposed to a phosphorimager screen and the resulting image was quantified in ImageJ. Differences in ^35S incorporation were analyzed for statistical significance by one-way ANOVA with Tukey's post test using the Prism software package.

The subject of another experiment is primary wild-type MEFs. Kind of experiment: Cell proliferation assay (resazurin), wild-type MEFs. The format is cell-based, mouse. To be noted: cultured 3 d, resazurin fluorescence. A general note: Resazurin is reduced to fluorescent resorufin, in cell work by metabolically active cells.
Experiment [2] concerns cap-dependent and IRES-dependent translation in primary MEFs. Briefly: Bicistronic reporter assay. The format is cell-based, mouse. The following applies: overnight, 10% serum. (In general: In a reporter assay the amount or activity of a reporter protein is the signal.)
Method: Primary MEFs were transfected with a bicistronic reporter [54] containing a viral IRES using Lipofectamine 2000 according to the manufacturers protocol. At 2 d post transfection, cells were treated overnight with compounds as indicated or starved of serum. The next day, Renilla and Firefly luciferase activity were measured using the Dual-Luciferase kit (Promega). Differences in the ratio of Renilla to Firefly luciferase signals were analyzed for statistical significance by one-way ANOVA with Tukey's post test using the Prism software package.
Experiment [3] has as its system Akt, S6 and 4EBP1 phosphorylation in fat, skeletal muscle, and liver. Kind of experiment: In vivo drug treatment and Western blotting of insulin signaling. Also noted: species or system C57BL/6 mice. To be noted: mice; for S6 phosphorylation, all tissues examined / phosphorylation of 4EBP1 on T36/45 and S65, all tissues examined: rapamycin 5 mg/kg or PP242 20 mg/kg IP. The method, then:
Drugs were prepared in 100 μl of vehicle containing 20% DMSO, 40% PEG-400, and 40% saline. Six-wk-old male C57BL/6 mice were fasted overnight prior to drug treatment. […] 15 min after the insulin injection, the mice were killed by CO2 asphyxiation followed by cervical dislocation. Tissues were harvested and frozen on liquid nitrogen in 200 μl of cap lysis buffer. The frozen tissue was thawed on ice, manually disrupted with a mortar and pestle, and then further processed with a micro tissue-homogenizer (Fisher PowerGen 125 with Omni-Tip probe). Protein concentration of the cleared lysate was measured by Bradford assay and 5–10 μg of protein was analyzed by Western blot as described above.

Experiment [4] deals with Akt phosphorylation in wild-type MEFs. Briefly: Akt phosphorylation in primary wild-type MEFs (Western blot). The format is cell-based, mouse. To be noted: long-term rapamycin (100 nM, 24 h). A general note: In western blotting, separated proteins are transferred to a membrane and probed.
The test system of experiment [5] is 4EBP1 bound to eIF4E in L6 myotube lysates. Briefly: Cap pull-down assay (m7GTP beads). Format: cell-based.
Method: L6 myotubes from one well of a six-well plate were lysed in 300 μl of cap lysis buffer as described above. 50 μl of detergent-free cap lysis buffer and 20 μl of pre-washed cap beads were added to 150 μl of cleared lysate and incubated at 4 °C overnight with tumbling. The beads were washed twice with 400 μl of cap wash buffer (cap lysis buffer with 0.5% NP-40 instead of 1% NP-40) and twice with 500 μl of PBS. The beads were boiled in SDS-PAGE sample buffer and the retained proteins analyzed by Western blot. All antibodies were from Cell Signaling Technologies except for the anti-eIF4E antibody, which was from BD Biosciences.
For the next experiment, the system named is SIN1−/− MEFs. Briefly: Cell proliferation assay (resazurin), SIN1−/− MEFs. To be noted: compared with PP242.
Experiment [6] concerns Akt phosphorylation in SIN1−/− MEFs. Briefly: Akt phosphorylation in primary SIN1−/− MEFs (Western blot). The format is cell-based, mouse. The following applies: insulin, PIK-90 625 nM, BX-795 10 μM.
For experiment [7], the system named is pT308 of S473A Akt in HEK293 cells. Format: cell-based. To be noted: HEK293, insulin, 2.5 μM PP242.
The subject of experiment [8] is S6K, S6 and 4EBP1 phosphorylation in L6 myotubes. Kind of experiment: mTORC1 substrate phosphorylation in L6 myotubes (Western blot). The following applies: Figure S3.
Experiment [9] relates to Akt substrates GSK3α/β, TSC2, and FoxO1/O3a in L6 myotubes. Briefly: Akt substrate phosphorylation in L6 myotubes (Western blot). Format: cell-based. The following applies: for phosphorylation of Akt and its substrates: insulin.

By IC50 is commonly meant the concentration at which inhibition is half-maximal. Lower therefore signals higher potency.

PKCβI, sequence (P05771 whole entry): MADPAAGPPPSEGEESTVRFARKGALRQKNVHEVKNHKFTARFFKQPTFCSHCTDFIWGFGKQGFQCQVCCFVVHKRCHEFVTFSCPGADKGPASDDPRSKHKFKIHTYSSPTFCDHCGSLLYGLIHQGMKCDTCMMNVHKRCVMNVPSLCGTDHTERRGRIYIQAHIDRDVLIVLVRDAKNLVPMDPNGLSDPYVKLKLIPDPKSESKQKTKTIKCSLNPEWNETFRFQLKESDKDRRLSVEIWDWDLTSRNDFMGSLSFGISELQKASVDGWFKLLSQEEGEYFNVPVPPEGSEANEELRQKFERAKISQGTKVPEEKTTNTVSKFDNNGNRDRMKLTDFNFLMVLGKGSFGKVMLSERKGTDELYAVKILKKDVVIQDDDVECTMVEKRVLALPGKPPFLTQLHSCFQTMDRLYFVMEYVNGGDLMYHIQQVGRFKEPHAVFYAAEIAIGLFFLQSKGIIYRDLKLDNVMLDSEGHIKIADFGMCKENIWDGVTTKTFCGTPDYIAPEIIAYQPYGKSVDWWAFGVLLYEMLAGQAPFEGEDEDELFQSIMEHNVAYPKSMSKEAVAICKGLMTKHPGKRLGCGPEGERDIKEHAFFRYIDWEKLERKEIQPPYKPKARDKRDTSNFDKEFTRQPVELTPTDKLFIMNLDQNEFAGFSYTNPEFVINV
PKCβII, sequence (P05771 1-673 isoform P05771-2): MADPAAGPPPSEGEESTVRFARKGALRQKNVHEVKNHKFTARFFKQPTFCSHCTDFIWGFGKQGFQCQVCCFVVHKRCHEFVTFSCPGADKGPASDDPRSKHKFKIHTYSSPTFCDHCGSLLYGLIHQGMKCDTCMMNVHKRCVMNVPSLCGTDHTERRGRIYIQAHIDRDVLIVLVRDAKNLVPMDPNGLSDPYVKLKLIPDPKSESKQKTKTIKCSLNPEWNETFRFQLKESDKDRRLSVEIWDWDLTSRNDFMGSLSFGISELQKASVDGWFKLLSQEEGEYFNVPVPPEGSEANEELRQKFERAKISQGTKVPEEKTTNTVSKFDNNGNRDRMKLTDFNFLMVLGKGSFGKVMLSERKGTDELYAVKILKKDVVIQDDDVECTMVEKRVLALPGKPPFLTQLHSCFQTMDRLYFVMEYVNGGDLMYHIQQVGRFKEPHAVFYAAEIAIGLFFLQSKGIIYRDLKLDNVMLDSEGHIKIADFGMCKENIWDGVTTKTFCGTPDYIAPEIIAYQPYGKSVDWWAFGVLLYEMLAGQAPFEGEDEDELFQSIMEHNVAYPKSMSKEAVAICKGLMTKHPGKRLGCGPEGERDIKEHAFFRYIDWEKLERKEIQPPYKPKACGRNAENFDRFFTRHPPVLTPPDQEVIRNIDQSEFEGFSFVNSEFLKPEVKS
PKC-beta, sequence (P05771 2-621 limits assumed): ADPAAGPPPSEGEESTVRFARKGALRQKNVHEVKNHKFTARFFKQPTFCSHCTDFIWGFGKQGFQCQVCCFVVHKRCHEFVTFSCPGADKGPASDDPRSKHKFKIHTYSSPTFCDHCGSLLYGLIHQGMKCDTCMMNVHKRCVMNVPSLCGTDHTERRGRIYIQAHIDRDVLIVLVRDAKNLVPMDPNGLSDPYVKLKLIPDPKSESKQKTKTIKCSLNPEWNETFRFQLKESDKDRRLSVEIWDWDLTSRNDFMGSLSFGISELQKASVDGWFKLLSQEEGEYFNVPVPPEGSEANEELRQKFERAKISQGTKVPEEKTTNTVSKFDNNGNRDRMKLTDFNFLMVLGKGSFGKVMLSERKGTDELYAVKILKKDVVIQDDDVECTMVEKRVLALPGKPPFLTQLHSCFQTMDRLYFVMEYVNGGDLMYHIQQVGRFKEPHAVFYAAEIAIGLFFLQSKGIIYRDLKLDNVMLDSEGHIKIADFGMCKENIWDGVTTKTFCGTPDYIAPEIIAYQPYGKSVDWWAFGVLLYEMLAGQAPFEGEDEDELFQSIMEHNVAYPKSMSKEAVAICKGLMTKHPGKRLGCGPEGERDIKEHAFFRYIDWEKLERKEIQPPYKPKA
Method for PKC-beta: (§1) Phosphorylation of histone H1 (4 μM) by PKC was assayed in a buffer containing 200 ng/ml recombinant kinase, 25 mM HEPES pH 7.5, 10 mM MgCl2, 5 mM ß-glycerol phosphate, 0.05 mg/ml phosphatidylserine, 0.03% Triton X-100, 0.5 mg/ml BSA, 2.5 mM DTT, 100 μM CaCl2, 1 μM PMA, 10 μM ATP, and 15 μCi/ml of γ-^32P-ATP. Inhibitors were tested in a four-fold dilution series from 10 μM to 600 pM, and four measurements were made at each concentration. The kinase reaction was terminated by spotting onto nitrocellulose, which was washed 5 times with 1 M NaCl/1% phosphoric acid. The radioactivity remaining on the nitrocellulose sheet was quantified by phosphorimaging, and IC50 values were determined by fitting the data to a sigmoidal dose-response curve using the Prism software package.
Method for PKCβII: as §1

With `CC(C)n1nc(-c2cccc(C(=O)NC3=NCCS3)c2)c2c(N)ncnc21` [PP30], the “activity against PKC-beta” value at PKC-beta was “no activity”. The IC50 on PDK1, on PKCβII and against PKCβI was more than 10 µM in each case.

On to `CO[C@H]1C[C@@H]2CC[C@@H](C)[C@@](O)(O2)C(=O)C(=O)N2CCCC[C@H]2C(=O)O[C@H]([C@H](C)C[C@@H]2CC[C@@H](O)[C@H](OC)C2)CC(=O)[C@H](C)/C=C(\C)[C@@H](O)[C@@H](OC)C(=O)[C@H](C)C[C@H](C)/C=C/C=C/C=C/1C` [rapamycin], for which, in [1], the “reduction of total protein synthesis” value is listed as “does not have a significant effect”. For the same compound, the “proliferation of primary MEFs” value with primary wild-type MEFs is recorded as “inhibited growth to the same extent”. Also, the “cap-dependent translation (renilla/firefly ratio)” value in experiment [2] is “did not have a statistically significant effect”. Also, the “phosphorylation of Akt at S473 and T308, all tissues examined” value in [3] (acute rapamycin 5 mg/kg IP, insulin) is on record as “activated”. For the same compound, in [3], the “S6 phosphorylation, all tissues examined” value is reported as “fully inhibited”; the “phosphorylation of 4EBP1 on T36/45 and S65, all tissues examined” value is on record as “did not block 4EBP1 phosphorylation as completely as PP242”. Moreover, in experiment [4], the “Akt S473-P” value is listed as “inhibited” and the “Akt T308-P” value is “reduced”. The “insulin-stimulated release of 4EBP1 from eIF4E (retention on m7GTP beads)” value in experiment [5] is reported as “partial inhibition”. Moreover, in the experiment on SIN1−/− MEFs, the “blocking cell proliferation of SIN1−/− MEFs” value is listed as “less effective at blocking cell proliferation than PP242”.

Take `CC(C)n1nc(-c2cc3cc(O)ccc3[nH]2)c2c(N)ncnc21` [PP242]: the “phosphorylation of Akt T308” value in experiment [6] is on record as “no effect”. Moreover, the “reduction of total protein synthesis” value in [1] is recorded as “about 30%”. Further, the “T308-P on S473A Akt” value in experiment [7] is reported as “not inhibited”. For the same compound, in [3] (PP242 20 mg/kg IP, insulin), the “phosphorylation of Akt at S473 and T308 in fat and liver” value is given as “completely inhibit”; the “phosphorylation of Akt in skeletal muscle” value is listed as “only partially able to inhibit”. Moreover, in experiment [3], the “S6 phosphorylation, all tissues examined” value is “fully inhibited”; the “phosphorylation of 4EBP1 on T36/45 and S65, all tissues examined” value is “effective at blocking”.

`COc1ccc2c(c1OC)N=C(NC(=O)c1cccnc1)N1CCN=C21` [PIK-90]: the “phosphorylation of Akt T308” value in [6] was “blocked”. Further, the “phosphorylation of 4EBP1 at T36/45” value in [8] was “did not reduce”. In addition, the “phosphorylation of Akt and its substrates” value in experiment [9] is listed as “completely inhibited”.

Regarding `O=C(NCCCNc1nc(Nc2cccc(NC(=O)N3CCCC3)c2)ncc1I)c1cccs1` [BX-795], in experiment [6], the “phosphorylation of Akt T308” value is on record as “blocked”.

As for `O=c1[nH]c2ccccc2n1C1CCN(Cc2ccc(-c3nc4cc5nc[nH]c5cc4nc3-c3ccccc3)cc2)CC1` [Akti-1/2], in experiment [9], the “FoxO1/O3a phosphorylation at T24/T32” value was “inhibits”; the “phosphorylation of Akt and its substrates” value is “completely inhibited”.
